# Measured values from PMC10395314 (RSC Advances, 2023).
# Assays:
# HepG2 = assay: MTT anti-proliferative assay on HepG2; conditions: Homo sapiens, HepG2, read-out: In vitro cytotoxicity IC50 HepG2
# MCF-7 = assay: MTT anti-proliferative assay on MCF-7; conditions: Homo sapiens, MCF7, read-out: In vitro cytotoxicity IC50 MCF-7
# caspase-3 = assay: Caspase-3 level in HepG2 cells; format: cell-based, human
# HepG2 cells [1] = assay: Wound healing; format: cell-based, human
# Vero cells = assay: Safety assay on non-cancerous Vero cells; format: cell-based
# caspase-9 = assay: Caspase-9 level in HepG2 cells; format: cell-based, human
# VEGFR-2 [2] = biological target: VEGFR-2 (Homo sapiens, UniProt P35968); assay: In vitro VEGFR-2 inhibition; format: biochemical
# VEGFR-2 [3] = assay: MM-GBSA binding free energy and decomposition; conditions: 15a versus sorafenib
# HepG2 cells [4] = assay: Apoptosis assay, Annexin V-FITC/PI flow cytometry; format: cell-based, human
# [5] = HepG2, 0.76 μM, control HepG2 = 1
# VEGFR-2 (Homo sapiens, UniProt P35968), sequence (P35968 20-1356): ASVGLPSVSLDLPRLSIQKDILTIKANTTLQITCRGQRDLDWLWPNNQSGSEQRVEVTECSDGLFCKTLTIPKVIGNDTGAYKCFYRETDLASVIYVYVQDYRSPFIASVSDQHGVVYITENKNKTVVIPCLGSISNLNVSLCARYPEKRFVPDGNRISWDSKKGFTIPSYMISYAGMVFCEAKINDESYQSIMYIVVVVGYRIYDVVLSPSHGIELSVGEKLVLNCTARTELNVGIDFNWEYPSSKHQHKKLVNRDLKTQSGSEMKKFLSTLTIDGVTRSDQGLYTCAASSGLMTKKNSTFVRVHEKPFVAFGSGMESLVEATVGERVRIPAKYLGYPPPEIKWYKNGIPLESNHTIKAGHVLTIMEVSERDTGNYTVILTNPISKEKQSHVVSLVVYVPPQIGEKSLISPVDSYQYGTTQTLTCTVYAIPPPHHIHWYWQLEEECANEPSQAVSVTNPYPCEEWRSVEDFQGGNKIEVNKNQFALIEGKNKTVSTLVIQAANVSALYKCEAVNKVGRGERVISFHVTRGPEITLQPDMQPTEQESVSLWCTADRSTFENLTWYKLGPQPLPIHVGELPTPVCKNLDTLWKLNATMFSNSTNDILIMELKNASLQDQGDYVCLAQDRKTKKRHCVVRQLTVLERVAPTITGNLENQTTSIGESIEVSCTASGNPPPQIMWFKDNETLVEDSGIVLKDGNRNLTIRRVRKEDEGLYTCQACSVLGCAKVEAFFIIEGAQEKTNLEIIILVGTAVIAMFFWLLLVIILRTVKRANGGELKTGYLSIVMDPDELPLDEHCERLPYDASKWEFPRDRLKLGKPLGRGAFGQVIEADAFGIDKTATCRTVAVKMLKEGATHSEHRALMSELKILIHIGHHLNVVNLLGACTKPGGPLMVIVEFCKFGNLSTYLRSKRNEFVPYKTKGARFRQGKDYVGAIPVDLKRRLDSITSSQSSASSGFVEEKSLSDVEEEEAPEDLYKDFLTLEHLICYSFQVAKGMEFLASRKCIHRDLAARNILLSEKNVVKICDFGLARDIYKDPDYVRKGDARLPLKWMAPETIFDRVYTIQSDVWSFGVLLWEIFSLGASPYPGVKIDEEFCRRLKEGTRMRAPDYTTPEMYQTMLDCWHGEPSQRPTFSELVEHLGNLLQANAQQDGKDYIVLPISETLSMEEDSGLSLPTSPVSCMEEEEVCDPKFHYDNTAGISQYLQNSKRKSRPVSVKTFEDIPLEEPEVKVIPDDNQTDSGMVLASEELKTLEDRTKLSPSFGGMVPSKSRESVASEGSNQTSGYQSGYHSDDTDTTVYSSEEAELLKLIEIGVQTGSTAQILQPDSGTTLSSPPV
smiles,measurement,setting,value
"CC(=NNC(=O)c1ccccc1Cl)c1ccc(NC(=O)Cn2c(=O)c3c(ncn3C)n(C)c2=O)cc1 [Compound 15b, N-(4-(1-(2-(2-Chlorobenzoyl)hydrazono)ethyl)phenyl)-2-(3,7-dimethyl-2,6-dioxo-2,3,6,7-tetrahydro-1H-purin-1-yl)acetamide]",IC50,HepG2,780 ± 20 nM
same,IC50,MCF-7,650 ± 10 nM
"CC(=NNC(=O)c1cccnc1)c1ccc(NC(=O)Cn2c(=O)c3c(ncn3C)n(C)c2=O)cc1 [Compound 17, 2-(3,7-Dimethyl-2,6-dioxo-2,3,6,7-tetrahydro-1H-purin-1-yl)-N-(4-(1-(2-nicotinoylhydrazono)ethyl)phenyl)acetamide]",IC50,HepG2,1050 ± 10 nM
same,IC50,MCF-7,800 ± 10 nM
"CNC(=O)c1cc(Oc2ccc(NC(=O)Nc3ccc(Cl)c(C(F)(F)F)c3)cc2)ccn1 [Sorafenib, reference compound]",IC50,HepG2,2240 ± 60 nM
same,IC50,MCF-7,3170 ± 10 nM
"CC(=NNC(=O)c1cccc(Cl)c1)c1cccc(NC(=O)Cn2c(=O)c3c(ncn3C)n(C)c2=O)c1 [Compound 16, N-(3-(1-(2-(3-Chlorobenzoyl)hydrazono)ethyl)phenyl)-2-(3,7-dimethyl-2,6-dioxo-2,3,6,7-tetrahydro-1H-purin-1-yl)acetamide]",IC50,HepG2,1230 ± 30 nM
same,IC50,MCF-7,2470 ± 40 nM
"CC(=NNC(=O)c1cccc(Br)c1)c1ccc(NC(=O)Cn2c(=O)c3c(ncn3C)n(C)c2=O)cc1 [Compound 15a, N-(4-(1-(2-(3-Bromobenzoyl)hydrazono)ethyl)phenyl)-2-(3,7-dimethyl-2,6-dioxo-2,3,6,7-tetrahydro-1H-purin-1-yl)acetamide]",increase of caspase-3 level compared to control,"caspase-3; HepG2, 0.76 μM (IC50 value)",3.45 fold
same,Protein expression Caspase-3,caspase-3; [5],3.451
same,decrease of scratch width,"HepG2 cells [1]; HepG2, within 48 hours, untreated 65.9%",34.17%
same,At 0 h Area,"HepG2 cells [1]; HepG2 scratch, 0 h",1000.667
same,At 0 h Width,"HepG2 cells [1]; HepG2 scratch, 0 h",999.7462
same,At 48 h Width,"HepG2 cells [1]; HepG2 scratch, 48 h, control 339.5385",657.7792
same,At 48 h Area,"HepG2 cells [1]; HepG2 scratch, 48 h, control 340.5",658.6667
same,RM,"HepG2 cells [1]; HepG2 scratch, after 48 hours, control 13.74681",7.124 μm
same,Wound closure,"HepG2 cells [1]; HepG2 scratch, after 48 hours, control 65.96135",34.18 % μm^2
same,IC50,HepG2,760 ± 10 nM
same,IC50,"Vero cells; Chlorocebus sabaeus, Vero, read-out: IC50 against Vero cells",75.2 µM
same,selectivity index against HepG2,Vero cells; based on Vero IC50 versus HepG2 IC50,98.97
same,selectivity index against MCF7,Vero cells; based on Vero IC50 versus MCF-7 IC50,69.64
same,IC50,MCF-7,1080 ± 20 nM
same,increase of caspase-9 level compared to control,"caspase-9; HepG2, 0.76 μM (IC50 value)",2.37 fold
same,Protein expression Caspase-9,caspase-9; [5],2.378
same,IC50,VEGFR-2 [2],239 nM
same,MM-GBSA binding energy smaller than that of the reference compound by,VEGFR-2 [3],8.5 kcal/mol
same,Apoptosis Late,"HepG2 cells [4]; HepG2, 0.76 µM for 72 h, control 0.13",12.17
same,Apoptosis Early,"HepG2 cells [4]; HepG2, 0.76 µM for 72 h, control 0.71",9.63
same,Necrosis,"HepG2 cells [4]; HepG2, 0.76 µM for 72 h, control 2.22",7.69
same,Apoptosis Total,"HepG2 cells [4]; HepG2, 0.76 µM for 72 h, control 3.06",29.49
same,proportion of HepG2 cells in late-stage apoptosis,"HepG2 cells [4]; HepG2, from 0.71% in control",9.63%
same,proportion of HepG2 cells in early-stage apoptosis,"HepG2 cells [4]; HepG2, from 3.06% in control",29.49%
